{"source": "patent US20110217300A1", "about": "“Quinazolinone Compounds and Methods of Use Thereof” (priority 2007, published 2011)", "key": {"[1]": {"molecular_target": "T1, HsEg5 (Homo sapiens, UniProt P52732)", "T1 sequence (P52732 18-359 limits assumed)": "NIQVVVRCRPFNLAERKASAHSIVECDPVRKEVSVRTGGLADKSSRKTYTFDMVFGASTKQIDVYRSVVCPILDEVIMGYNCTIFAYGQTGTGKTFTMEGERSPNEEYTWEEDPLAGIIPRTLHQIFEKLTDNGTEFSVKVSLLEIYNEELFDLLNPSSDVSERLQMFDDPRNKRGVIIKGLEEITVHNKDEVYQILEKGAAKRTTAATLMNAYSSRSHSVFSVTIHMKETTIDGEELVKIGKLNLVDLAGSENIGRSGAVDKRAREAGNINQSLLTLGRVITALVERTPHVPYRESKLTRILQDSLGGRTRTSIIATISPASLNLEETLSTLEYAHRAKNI", "assay": "Fluorescence detection of HsEg5 ATPase activity (ADP Quest, automated)", "format": "biochemical", "in_short": "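Microtubule-activated HsEg5 motor fragment (10 nM, 500 nM MTs) preincubated 10 min with compound, then 20 μM ATP for 10 min at room temperature in Pipes pH 7.0, MgCl2, paclitaxel, 0.3% DMSO. ADP detected via coupled-enzyme resorufin fluorescence; IC50 over 100 μM–5 nM.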"}, "[2]": {"test_system": "HT29 xenograft", "assay": "Xenograft model", "format": "in vivo, mice", "conditions": "HT29, Colon; procedures and dosages of Examples 106-108"}, "[3]": {"test_system": "MDA-MB-231 tumor xenografts", "assay": "MDA-MB-231 tumor xenograft efficacy study", "format": "in vivo, mice", "procedure": "Six weeks old female athymic nude mice (NCR nu/nu) received from Charles River Laboratory, acclimated to the animal housing facility for one week before initiation of the study. Mice were housed in sterile cages of 4 each with autoclaved bedding, provided with autoclaved food and water ad libitum. Efficacy studies were performed in athymic mice bearing MDA-MB-231 tumor xenografts to determine the effect of compound on tumor growth. Tumor cells (5×10^6 MDA-MB-231 cells/animal) were inoculated subcutaneously on day 0. Tumor dimensions were measured three times weekly by a digital microcaliper, and tumor volumes were calculated as length×width^2/2. When tumors reached a volume of ˜100 mm^3, mice were randomized into groups and treated 3× weekly (Monday-Wednesday-Friday, followed by a 2-day dosing holiday) intraperitoneally. With either vehicle control or 3 mg/kg, 6 mg/kg and 12 mg/kg compound formulated in DMA/PEG400/water (4:8:88). Results are expressed as mean tumor volume±SE. To assess differences in tumor size between groups, student's t test was performed and significance was assessed for p values <0.05. Tumor size was evaluated periodically during treatment at the indicated days post-inoculation. Results are represented as the mean of tumor volume in mm^3±SE of several tumors (n=8) in function of the treatment period.\nThe in vivo activity of N-(3-amino-propyl)-3-chloro-N—[(R)-1-(7-chloro-4-oxo-3-phenylamino-3,4-dihydro-quinazolin-2-yl)-but-3-ynyl]-2-fluoro-benzamide was tested using xenograft models using cell lines as reported in Table 4. The experiments were performed using the general procedures and dosages of Examples 106-108."}}, "data": [{"smiles": "C#CC[C@H](c1nc2cc(Cl)ccc2c(=O)n1Nc1ccccc1)N(CCCN)C(=O)c1cccc(Cl)c1F", "note": "[Compound 1, N-(3-Amino-propyl)-3-chloro-N—[(R)-1-(7-chloro-4-oxo-3-phenylamino-3,4-dihydro-quinazolin-2-yl)-but-3-ynyl]-2-fluoro-benzamide]", "values": [{"measurement": "IC50", "setting": "[1]", "value": 28, "unit": "nM"}, {"measurement": "Xenograft Outcome (approximate percent growth inhibition)", "setting": "[2]", "value": "~30", "unit": "%"}, {"measurement": "tolerability of doses", "setting": "[3]; 3 mg/kg, 6 mg/kg or 12 mg/kg intraperitoneally 3x weekly, MDA-MB-231 xenograft mice", "value": "well-tolerated"}, {"measurement": "tumor growth compared to the vehicle control group", "setting": "[3]; 3 mg/kg, 6 mg/kg or 12 mg/kg intraperitoneally 3x weekly, tumors ~100 mm^3 at start, FIG. 2", "value": "Significant reductions in tumor growth"}, {"measurement": "Xenograft Outcome (approximate percent growth inhibition)", "setting": "[3]; MDA-MB-231, Breast, procedures and dosages of Examples 106-108", "value": "~80", "unit": "%"}]}]}
